Laboratory results taken from patent US5747065A, “Monoglyceride/lactate ester permeation enhancer for oxybutynin” (priority 1996, dated 1998).
Read-outs that look alike come from different tables or passages of the source.

Experiments:
[1] = compared with racemate; devices/gels of Table 4
Procedure: The drug/permeation enhancer reservoir was prepared by mixing, depending on the formulation, either ethylene vinyl acetate copolymer having a vinyl acetate content of 40 percent ("EVA 40", U.S.I. Chemicals, Illinois) or mineral oil and petrolatum in an internal mixer (Bra Bender type mixer) until the EVA 40 pellets fused. Oxybutynin, glycerol monolaurate and lauryl lactate were then added.
When EVA 40 was used the mixture was blended, cooled and calendered to a 5 mil thick film. This film was then laminated to an acrylic contact adhesive (MSP041991P, 3M) on one side and Medpar® backing (3M) on the opposite side. The laminate was then cut into 2.54 cm^2 circles using a stainless steel punch. Circular pieces of human-epidermis were mounted on horizontal permeation cells with the stratum corneum facing the donor compartment of the cell. The release liner of the system was then removed and the system was centered over the stratum corneum side of the epidermis. A known volume of the receptor solution (0.05M sodium phosphate buffer at pH 6) that had been equilibrated at 35° C. was placed in the receptor compartment. Air bubbles were removed; the cell was capped and placed in a water bath-shaker at 35° C.
When the mineral oil/petrolatum was used, the mixture, containing the drug and permeation enhancers, was blended/mixed and then poured into the donor side of a two-side diffusion cell. […]

[2] = format: in vivo, human; conditions: transdermal, coadministered with the permeation enhancing mixture
Procedure: Representative skin permeation rates of oxybutynin through living human skin are in the range of about 5 μg/cm^2 ·hr to about 15 μg/cm^2 ·hr. Therapeutic blood levels can be achieved within approximately 6-10 hours after the initial application, and blood concentrations are maintained with subsequent system applications. The range of desired and achievable system permeation rates of oxybutynin, arriving through the skin from a limited area, is 1-20 mg over a period of 24 hours. The system application is easily adapted for shorter or longer duration treatments, but generally 72 hours is the duration for a single application.

[3] = 25 mg/mL aqueous oxybutynin, 20 μm polybutadiene film, 0.05M isotonic phosphate buffer, cited from earlier work
[4] = Solubility of glycerol monolaurate in lauryl lactate / EVA 40; format: physicochemical; conditions: for Wt % GML in solution (free GML): based on GML solubility of 350 mg/g
From the text: The unexpected effects of the specific weight percentages of the components of the permeation enhancer mixture are believed to be due, in part, to the solubility of the monoglyceride in the lactic acid ester. It is known that monoglycerides by themselves are effective permeation enhancers. The enhancement occurs by the solubilization of the monoglyceride in the lipid layer of the skin. The solubilization of the monoglyceride in the lipid layer increases as a function of lactic acid ester concentration. […] Thus, the amount of GML dissolved, ie, free GML, is dictated by and proportional to the lauryl lactate loading in the polymer.

Q: Which “flux of R- or S-oxybutynin relative to the racemate” value [1] does the source give for `CCN(CC)CC#CCOC(=O)[C@](O)(c1ccccc1)C1CCCCC1` [R-oxybutynin] here?
A: approximately equivalent to that of the racemate

Q: With `CCN(CC)CC#CCOC(=O)C(O)(c1ccccc1)C1CCCCC1` (centres unmarked) [oxybutynin] as the compound, how does the “time to therapeutic blood levels after the initial application” value [2] read?
A: 6 to 10 h

Q: What about the “in vitro release rate” value ([3]; per area) of the same compound?
A: ~10 μg/cm^2 ·hr

Q: And the “in vitro release rate” value ([3]; through 49 cm^2 area)?
A: approximately 12 mg over 24 hours

Q: What does the source list for `CCCCCCCCCCCC(=O)OCC(O)CO` (centres unmarked) [glycerol monolaurate]?
A: Wt % GML in solution (free GML) ([4]; 12% lauryl lactate in EVA 40): 4.2%; Wt % GML in solution (free GML) ([4]; 20% lauryl lactate in EVA 40): 7.0%; Wt % GML in solution (free GML) ([4]; 27% lauryl lactate in EVA 40): 9.5%; Wt % GML in solution (free GML) ([4]; 30% lauryl lactate in EVA 40): 10.5%; solubility in EVA 40 matrix ([4]; in an EVA 40 matrix): practically insoluble; solubility of glycerol monolaurate in lauryl lactate ([4]; in lauryl lactate, solution stirred): 350 mg/g of solution

Q: For `CCN(CC)CC#CCOC(=O)[C@@](O)(c1ccccc1)C1CCCCC1` [S-oxybutynin], which “flux of R- or S-oxybutynin relative to the racemate” value [1] is on record?
A: approximately equivalent to that of the racemate
